Measured values taken from US20230096203A1, “METHODS FOR DETECTING FOOD ALLERGIES” (THE REGENTS OF THE UNIVERSITY OF MICHIGAN, priority 2020, published 2023).

Tested on: CFTR-dependent Cl— transport
Assay: Ussing chamber: forskolin-induced short-circuit current of jejunum segments pre-incubated ex vivo with ion channel blockers
Set-up: species or system BALB/c wild-type (WT) mice
Conditions: jejunum of OVA-treated mice; DIDS (100 μM) or CFTRInh172 (20 μM) in mucosal reservoir
Procedure: Oral Antigen-Induced Intestinal Anaphylaxis. 4-8-week-old mice were sensitized to ovalbumin (OVA) ([…] of OVA/1 mg of alum in sterile saline by intraperitoneal (i.p.) injection) and received repeated oral gavage (o.g.) challenge with OVA (250 μl of OVA (50 mg) in saline or 250 μl of saline (vehicle)) as previously described (Ahrens et al., American Journal of Pathology 180, 1535-1546, doi:10.101/j.ajpath.2011.12.036 (2012)). Prior to each o.g. challenge, mice were deprived of food for 4-5 hours. Rectal temperatures were measured prior to challenge and then every 15 minutes for 60 minutes. […] Evidence of secretory diarrhea was assessed by determination of short-circuit current (Isc) of small intestine (Si) segments ex vivo in a Ussing chamber system up to 60 minutes following o.g. challenge. […]
Ussing chambers. […] The transepithelial potential difference (PD) was detected with two paired electrodes that contained 4% agar in 3 M KCl. […] To establish equilibrium, PD was continuously monitored under open-circuit conditions for 15 min. […] For ion conductance experiments, changes in Isc were determined for the cumulative addition of forskolin and acetylcholine to the serosal reservoir. After the peak response to the final concentration of each agonist was recorded, the Krebs buffer on each side of the chamber was replaced, and the tissue was allowed to equilibrate for 30 minutes. […]

SMILES | Forskolin-induced ΔIsc
O=C(O)c1ccc(/C=C2\SC(=S)N(c3cccc(C(F)(F)F)c3)C2=O)cc1 [CFTR^inh172] | abrogated
O=S(=O)(O)c1cc(N=C=S)ccc1C=Cc1ccc(N=C=S)cc1S(=O)(=O)O [DIDS, 4,4′-Diisothiocyanatostilbene-2,2′-disulfonate] | not
